Legend:
Format in all cases: cell-based
human TLR7 = target: T1, human TLR7 (Homo sapiens, UniProt Q9NYK1); test: TLR7 inhibition reporter assay (HEK-Blue cells, SEAP reporter, gardiquimod stimulation); details: HEK-Blue cells overexpressing human TLR7, SEAP reporter, gardiquimod 7.5 μM
T1 construct: host or cells: HEK-Blue cells
T1 sequence (Q9NYK1 27-1049): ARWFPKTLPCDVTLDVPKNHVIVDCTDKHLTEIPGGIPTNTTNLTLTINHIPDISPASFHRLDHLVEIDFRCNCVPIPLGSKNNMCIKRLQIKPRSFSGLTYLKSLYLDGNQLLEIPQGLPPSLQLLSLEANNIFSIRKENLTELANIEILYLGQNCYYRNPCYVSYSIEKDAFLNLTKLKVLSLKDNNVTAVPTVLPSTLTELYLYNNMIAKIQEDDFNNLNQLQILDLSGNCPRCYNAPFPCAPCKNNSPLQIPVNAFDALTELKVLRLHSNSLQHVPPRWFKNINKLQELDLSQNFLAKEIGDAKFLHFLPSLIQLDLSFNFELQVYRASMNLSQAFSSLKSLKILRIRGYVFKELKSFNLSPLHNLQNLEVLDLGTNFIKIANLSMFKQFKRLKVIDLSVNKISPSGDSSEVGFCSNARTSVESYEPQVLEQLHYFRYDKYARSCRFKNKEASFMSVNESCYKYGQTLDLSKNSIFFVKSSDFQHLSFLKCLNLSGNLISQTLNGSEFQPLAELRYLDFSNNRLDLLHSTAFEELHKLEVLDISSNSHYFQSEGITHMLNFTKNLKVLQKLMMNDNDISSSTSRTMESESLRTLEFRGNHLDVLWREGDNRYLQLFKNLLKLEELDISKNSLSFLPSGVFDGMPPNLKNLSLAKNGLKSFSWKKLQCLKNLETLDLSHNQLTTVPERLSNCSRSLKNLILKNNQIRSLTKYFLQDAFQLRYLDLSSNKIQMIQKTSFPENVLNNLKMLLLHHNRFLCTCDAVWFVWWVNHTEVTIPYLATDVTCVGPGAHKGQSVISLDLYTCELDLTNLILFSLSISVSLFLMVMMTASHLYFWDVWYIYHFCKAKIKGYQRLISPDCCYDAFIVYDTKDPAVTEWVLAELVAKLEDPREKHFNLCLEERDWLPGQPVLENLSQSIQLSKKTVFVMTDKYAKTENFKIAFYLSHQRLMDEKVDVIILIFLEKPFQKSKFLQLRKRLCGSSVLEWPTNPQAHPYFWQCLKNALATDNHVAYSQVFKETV
Procedure, shortened: (§1)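 Ligand levels differed by receptor: TLR7 got gardiquimod at 7.5 μM, TLR8 got R848 at 15.9 μM, and TLR9 got ODN2006 at 5 nM, each added after a 30-min room-temperature compound exposure. Incubation lasted 22 h at 37° C before colorimetric SEAP detection.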

human TLR8 = target: T2, human TLR8 (Homo sapiens, UniProt Q9NR97); test: TLR8 inhibition reporter assay (HEK-Blue cells, SEAP reporter, R848 stimulation); details: HEK-Blue cells overexpressing human TLR8, SEAP reporter, R848 15.9 μM
T2 construct: host or cells: HEK-Blue cells
T2 sequence (Q9NR97 27-1041): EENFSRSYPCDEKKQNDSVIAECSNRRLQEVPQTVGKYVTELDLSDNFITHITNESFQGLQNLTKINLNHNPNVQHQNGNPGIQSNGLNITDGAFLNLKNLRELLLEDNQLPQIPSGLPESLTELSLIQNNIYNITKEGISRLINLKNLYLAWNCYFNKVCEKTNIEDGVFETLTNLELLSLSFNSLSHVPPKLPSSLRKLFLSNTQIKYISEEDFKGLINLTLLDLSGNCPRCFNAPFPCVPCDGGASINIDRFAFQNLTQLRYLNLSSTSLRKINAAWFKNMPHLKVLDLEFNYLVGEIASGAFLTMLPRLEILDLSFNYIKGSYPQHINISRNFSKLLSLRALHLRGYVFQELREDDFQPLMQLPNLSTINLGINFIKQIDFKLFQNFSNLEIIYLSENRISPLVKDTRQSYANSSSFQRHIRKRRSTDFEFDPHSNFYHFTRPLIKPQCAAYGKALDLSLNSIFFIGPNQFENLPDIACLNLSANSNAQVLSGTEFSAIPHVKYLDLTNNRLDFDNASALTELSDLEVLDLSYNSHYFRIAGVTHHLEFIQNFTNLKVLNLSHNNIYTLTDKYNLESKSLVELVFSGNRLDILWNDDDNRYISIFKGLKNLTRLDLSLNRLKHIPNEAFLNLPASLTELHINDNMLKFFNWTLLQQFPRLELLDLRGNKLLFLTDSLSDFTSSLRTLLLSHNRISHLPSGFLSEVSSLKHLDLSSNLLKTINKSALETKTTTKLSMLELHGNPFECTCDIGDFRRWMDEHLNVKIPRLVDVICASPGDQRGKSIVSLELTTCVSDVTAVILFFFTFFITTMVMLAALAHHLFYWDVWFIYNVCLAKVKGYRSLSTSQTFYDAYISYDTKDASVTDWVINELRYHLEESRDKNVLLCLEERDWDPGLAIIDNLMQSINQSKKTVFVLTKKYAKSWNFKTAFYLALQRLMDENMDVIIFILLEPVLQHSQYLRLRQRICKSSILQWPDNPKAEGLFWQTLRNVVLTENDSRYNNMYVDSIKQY
Procedure, shortened: as §1

human TLR9 = target: T3, human TLR9 (Homo sapiens, UniProt Q9NR96); test: TLR9 inhibition reporter assay (HEK-Blue cells, SEAP reporter, ODN2006 stimulation); details: HEK-Blue cells overexpressing human TLR9, SEAP reporter, ODN2006 5 nM
T3 construct: host or cells: HEK-Blue cells
T3 sequence (Q9NR96 26-1032): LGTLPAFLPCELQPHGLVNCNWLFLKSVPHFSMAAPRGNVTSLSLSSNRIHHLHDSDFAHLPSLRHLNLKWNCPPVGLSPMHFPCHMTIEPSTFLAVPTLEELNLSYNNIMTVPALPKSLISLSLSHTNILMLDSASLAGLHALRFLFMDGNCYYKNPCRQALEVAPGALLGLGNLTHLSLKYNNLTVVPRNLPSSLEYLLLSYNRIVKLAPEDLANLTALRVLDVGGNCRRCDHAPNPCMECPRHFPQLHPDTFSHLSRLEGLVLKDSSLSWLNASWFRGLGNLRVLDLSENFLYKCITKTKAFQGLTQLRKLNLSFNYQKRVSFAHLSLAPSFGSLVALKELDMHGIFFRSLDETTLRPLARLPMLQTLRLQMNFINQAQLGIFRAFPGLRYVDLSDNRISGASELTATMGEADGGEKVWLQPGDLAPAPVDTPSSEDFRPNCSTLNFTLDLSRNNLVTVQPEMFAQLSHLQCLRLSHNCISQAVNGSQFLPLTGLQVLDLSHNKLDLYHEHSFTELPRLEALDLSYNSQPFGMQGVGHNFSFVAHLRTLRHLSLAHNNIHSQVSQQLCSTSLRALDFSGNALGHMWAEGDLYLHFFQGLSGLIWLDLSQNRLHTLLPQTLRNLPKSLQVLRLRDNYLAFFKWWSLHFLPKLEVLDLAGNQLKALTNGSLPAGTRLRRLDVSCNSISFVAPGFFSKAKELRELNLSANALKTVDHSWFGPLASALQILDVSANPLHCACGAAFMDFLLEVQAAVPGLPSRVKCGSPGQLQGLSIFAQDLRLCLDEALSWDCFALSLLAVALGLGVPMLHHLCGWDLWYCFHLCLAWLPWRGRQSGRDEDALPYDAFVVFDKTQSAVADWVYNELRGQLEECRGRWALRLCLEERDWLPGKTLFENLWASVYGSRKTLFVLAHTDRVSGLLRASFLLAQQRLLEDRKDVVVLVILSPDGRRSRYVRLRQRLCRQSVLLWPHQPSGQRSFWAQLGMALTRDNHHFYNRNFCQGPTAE
Procedure, shortened: as §1

SMILES	IC50 (human TLR7) [nM]	IC50 (human TLR8) [nM]	IC50 (human TLR9) [nM]
Cc1cc(-c2[nH]nc(C3CCN(C(C)C)CC3)c2C(C)C)cn2ncnc12 [compound 207]	2.92	0.31	20700
COc1cc(-c2[nH]nc(C(=O)NC3CCNCC3)c2CC(F)(F)F)cn2ncnc12 [Example 190, 5-(8-methoxy-[1,2,4]triazolo[1,5-a]pyridin-6-yl)-N-(piperidin-4-yl)-4-(2,2,2-trifluoroethyl)-1H-pyrazole-3-carboxamide]	0.8	0.58	8350
COc1cc(-c2[nH]nc(-c3ccc(C4CCN(CC5CC5)CC4)cn3)c2C(C)C)cn2ncnc12 [Example 374]	11.7	9.33	41500
COc1cc(-c2[nH]nc(-c3cnc(C4CCN(CC(=O)N(C)C)CC4)cn3)c2C(C)C)cn2ncnc12 [Example 401]	36.9	35.7	13500
COc1cc(-c2[nH]nc(-c3ccc(C4CCN(CC5CCOCC5)CC4)cn3)c2C(C)C)cn2ncnc12 [Example 375]	19.9	8.4	35600
Cc1cc(-c2[nH]nc(C3CCC(NCC4(C)COC4)CC3)c2C(C)C)cn2ncnc12 (single isomer, unassigned) [Example 281]	9.49	0.45	42600
Cc1cc(-c2[nH]nc(C(=O)NC3CCN(CCC(C)C)CC3)c2C(C)C)cn2ncnc12 [Example 76]	0.9	2.62	1450
Cc1cc(-c2[nH]nc(C(=O)N(C)CCC#N)c2C(C)C)cn2ncnc12 [Example 16]	3.09	2.74	43500
Cc1cc(-c2[nH]nc(C3CCC(N4CCN(C)CC4)CC3)c2C(C)C)cn2ncnc12 (single isomer, unassigned) [Example 286]	25.6	14.6	> 50000
Cc1cc(-c2[nH]nc(C(=O)N[C@H]3CC[C@H](NCC4CCCC4)CC3)c2C(C)C)cn2ncnc12 [Example 109]	6.81	27.9	6090
Cc1cc(-c2[nH]nc(-c3ncc4c(n3)CCN(C)C4)c2C(C)C)cn2ncnc12 [Example 248]	8.33	12	14000
Cc1cc(-c2[nH]nc(-c3cnc4c(c3)CNCC4)c2C(C)C)cn2ncnc12 [Example 230]	4.92	1.5	43500
CNC(=O)CN1CCc2cc(-c3n[nH]c(-c4cc(C)c5ncnn5c4)c3C(C)C)ccc2C1 [Example 273]	13.7	26.5	5550
COCCN1CCc2cc(-c3n[nH]c(-c4cc(C)c5ncnn5c4)c3C(C)C)ccc2C1 [Example 263, 6-(4-isopropyl-5-(8-methyl-[1,2,4]triazolo[1,5-a]pyridin-6-yl)-1H-pyrazol-3-yl)-2-(2-methoxyethyl)-1,2,3,4-tetrahydroisoquinoline]	4.74	4.48	18100
COc1cc(-c2[nH]nc(C(=O)NC3CCN(CC4CCOCC4)CC3)c2CC(F)(F)F)cn2ncnc12 [Example 197]	5.35	2.08	13100
COc1cc(-c2[nH]nc(-c3cnc(C4CCN(CC(C)C)CC4)cn3)c2C(C)C)cn2ncnc12 [Example 379]	55.7	22.9	28000
COc1cc(-c2[nH]nc(-c3cnc(C4CCN(C)CC4)cn3)c2C(C)C)cn2ncnc12 [Example 381]	11.1	9.06	5880
Cc1cc(-c2[nH]nc(-c3nc4c(s3)CN(CC(=O)N(C)C)CC4)c2C(C)C)cn2ncnc12 [Example 275]	413	515	> 50000
Cc1cc(-c2[nH]nc(-c3nc4c(s3)CN(C(=O)CN(C)C)CC4)c2C(C)C)cn2ncnc12 [Example 270]	8.99	14	3460
Cc1cc(-c2[nH]nc(-c3ccc(N(C)C)nc3)c2C(C)C)cn2ncnc12 [Example 237]	4.87	0.29	5490
Cc1cc(-c2[nH]nc(C(=O)N[C@H]3CC[C@@H](NCC4CCOCC4)CC3)c2C(C)C)cn2ncnc12 [Example 92]	0.31	2.34	4110
Cc1cc(-c2[nH]nc(C(=O)N(C)Cc3cccnc3)c2C(C)C)cn2ncnc12 [Example 17]	8.08	8.27	3430
CCNc1ccc2nc(-c3n[nH]c(-c4cc(C)c5ncnn5c4)c3C(C)C)sc2c1 [Example 257]	13.6	0.86	34900
Cc1cc(-c2[nH]nc(C(=O)N3CCN(c4ccncc4)CC3)c2C(C)C)cn2ncnc12 [Example 14]	1.92	0.94	3840
Cc1cc(-c2[nH]nc(-c3ccc(NC(C)C)cc3)c2C(C)C)cn2ncnc12 [Example 244]	44	17.5	25300
